In experiment [1] the test system is Splenocyte. The experiment can be described thus: Antiproliferative activity against mouse splenocytes relative to control. On the set-up: concentration or dose not given beside the values. Format: functional.
Experiment [2] has as its system Splenocyte. The experiment can be described thus: Antiproliferative activity against mouse splenocytes at 100 nM relative to control. Format: functional.
Experiment [3] relates to B16-F10. As to the kind of experiment: Antitumor activity against mouse B16F10 cells xenografted in mouse assessed as reduction in tumor growth at 5 mg/kg, sc qd after 14 days relative to control. Type of experiment: functional. The note with it: 336 h, read-out: TGI.
Experiment [4] concerns the target T1, Programmed cell death 1 ligand 1 (Homo sapiens, UniProt Q9NZQ7). As to the kind of experiment: Antagonist activity against PDL1 (unknown origin).
Experiment [5] deals with MDA-MB-231. The experiment can be described thus: Antiproliferative activity against human MDA-MB-231 cells. Type of experiment: functional, cell-based.
For experiment [6], the system named is 4T1. The experiment can be described thus: Antitumor activity against mouse 4T1 cells xenografted in mouse assessed as reduction in tumor growth at 3 mg/kg, sc qd after 40 days relative to control. Type of experiment: functional. Conditions: 4T1, sc, 960 h, read-out: TGI.
For experiment [7], the system named is HEK293. The experiment can be described thus: Antiproliferative activity against HEK293 cells. Format: functional, cell-based. The note with it: Homo sapiens.
Experiment [8] deals with Programmed cell death protein 1/Programmed cell death 1 ligand 1 (Homo sapiens, UniProt Q15116+Q9NZQ7). The experiment can be described thus: Inhibition of human PD1/PDL1 protein-protein interaction by HTRF assay. Format: protein-complex assay. (TR-FRET usually uses a lanthanide donor and a delayed reading to cut background.)
Experiment [9] has as its target T1, Programmed cell death 1 ligand 1. As to the kind of experiment: Inhibition of PDL1 (unknown origin).
Experiment [10] has as its system CT26. As to the kind of experiment: Antitumor activity against mouse CT26 cells xenografted in mouse assessed as reduction in tumor growth at 3 mg/kg after 25 days relative to control. The note with it: CT26, 600 h, read-out: TGI. Type of experiment: functional.
Experiment [11] has as its target T2, Programmed cell death 1 ligand 2 (Homo sapiens, UniProt Q9BQ51).
T2 sequence (Q9BQ51 whole entry): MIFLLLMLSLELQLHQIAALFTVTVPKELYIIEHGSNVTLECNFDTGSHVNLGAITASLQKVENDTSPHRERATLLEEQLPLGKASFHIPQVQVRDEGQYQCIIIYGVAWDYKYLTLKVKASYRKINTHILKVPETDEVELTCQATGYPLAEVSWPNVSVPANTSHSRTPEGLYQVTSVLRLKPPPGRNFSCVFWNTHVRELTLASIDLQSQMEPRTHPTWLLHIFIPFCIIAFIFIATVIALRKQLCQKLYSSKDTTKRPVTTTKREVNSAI
As to the kind of experiment: Inhibition of PDL2 (unknown origin).

Bridge positions count the residues as written; N and C are the ends. Square brackets hold non-standard residues; d marks the D form. Peptide text beside a SMILES is read from it. * marks the point of attachment. ξ: configuration not given here. X1 = NC(CO)C(=O)NC(Cc1ccccc1)C(=O)NCCCCN*; ξE = NC(CCC(=O)O)C(=O)O; ξK = NCCCCC(N)C(=O)O

As usually defined, the IC50 is the point on the concentration scale where inhibition reaches its midpoint. By EC50 is commonly meant the concentration giving half of the maximal effect.

Sequence of Programmed cell death protein 1/Programmed cell death 1 ligand 1 (Q15116 whole entry): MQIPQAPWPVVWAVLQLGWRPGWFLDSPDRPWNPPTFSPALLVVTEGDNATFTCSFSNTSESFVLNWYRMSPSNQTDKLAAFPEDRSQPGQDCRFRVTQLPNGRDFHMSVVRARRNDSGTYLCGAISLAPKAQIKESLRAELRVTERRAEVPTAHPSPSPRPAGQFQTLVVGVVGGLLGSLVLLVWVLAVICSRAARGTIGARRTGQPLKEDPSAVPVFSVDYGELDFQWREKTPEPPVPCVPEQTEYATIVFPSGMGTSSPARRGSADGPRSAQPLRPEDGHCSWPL
Sequence of Programmed cell death protein 1/Programmed cell death 1 ligand 1 (Q9NZQ7 whole entry): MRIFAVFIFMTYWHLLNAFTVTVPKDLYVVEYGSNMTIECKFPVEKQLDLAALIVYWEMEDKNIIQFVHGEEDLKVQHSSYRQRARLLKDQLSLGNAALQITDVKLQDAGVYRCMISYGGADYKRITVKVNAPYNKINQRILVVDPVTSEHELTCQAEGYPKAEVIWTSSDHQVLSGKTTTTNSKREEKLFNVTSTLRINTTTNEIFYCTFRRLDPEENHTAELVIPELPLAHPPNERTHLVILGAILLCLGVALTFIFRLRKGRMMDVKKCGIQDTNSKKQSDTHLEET
T1 sequence (Q9NZQ7 whole entry): as above

`C#CC[C@H](NC(=O)N[C@H](C(=O)O)[C@@H](C)O)c1nc(-c2cnccn2)no1` gave an Activity in [1] of 92%.

For `CCCNC(=O)CC[C@H](NC(=O)N[C@H](C(=O)O)[C@@H](C)O)c1nc([C@@H](N)CO)no1`, the Activity in [2] is 119%.

For `C[C@@H](O)[C@H](N)c1nnc([C@H](CCC(N)=O)NC(=O)N[C@@H](CO)C(=O)O)o1`, in experiment [1], the Activity is reported as 92%.

With `C[C@@H](O)[C@@H]1NC(=O)C(NC(=O)[C@@H](N)CO)CCC(=O)NCCCCC(C(=O)N[C@@H](CO)C(=O)N[C@@H](Cc2ccccc2)C(N)=O)NC(=O)[C@H](CO)NC1=O` (some centres not stated) (H-S[ξE]TS[ξK]SF-NH2; lactam 2-5), the inhibition in vivo at 5 mg/kg in [3] was 54%. Also, the Activity in [2] was 78%.

Take `N#Cc1c(-c2ccc3c(c2)OCCO3)cccc1N1CCC(N[C@H]2C[C@@H](O)C2)CC1`: in experiment [4], the IC50 is < 0.1 µM.

Consider `NC(=O)C[C@H](NC(=O)N[C@@H](CO)C(=O)O)c1nnc(-c2cnccn2)o1`, for which the Activity in experiment [1] is 63%.

Turning to `C[C@@H](O)[C@H](NC(=O)[C@H](CC(N)=O)NC(=O)[C@@H](N)CO)C(=O)N[C@@H](CO)C(=O)NC(CCC(=O)NCCCCNC(=O)C(Cc1ccccc1)NC(=O)C(N)CO)C(N)=O` (some centres not stated) (H-SNTS[ξE](X1)-NH2), the inhibition in vivo at 5 mg/kg in experiment [3] came out at 64%.

Take `CC[C@H](C)[C@H](NC(=O)[C@H](CCC(N)=O)NC(=O)[C@H](C)NC(=O)[C@H](CCCCN)NC(=O)[C@@H]1CCCN1C(=O)[C@H](C)NC(=O)[C@H](CC(C)C)NC(=O)[C@H](CCC(N)=O)NC(=O)[C@@H](NC(=O)[C@@H](NC(=O)[C@H](CCCNC(=N)N)NC(=O)[C@H](Cc1ccccc1)NC(=O)[C@H](CCCCNC(=O)[C@H](Cc1ccccc1)NC(=O)[C@H](CO)NC(=O)[C@H](CCC(=O)O)NC(=O)[C@H](CO)NC(=O)[C@@H](NC(=O)[C@H](CC(N)=O)NC(=O)[C@@H](N)CO)[C@@H](C)O)NC(=O)[C@H](Cc1ccccc1)NC(=O)[C@H](CO)NC(=O)[C@H](CCC(=O)O)NC(=O)[C@H](CO)NC(=O)[C@@H](NC(=O)[C@H](CC(N)=O)NC(=O)[C@@H](N)CO)[C@@H](C)O)C(C)C)[C@@H](C)O)C(=O)N[C@@H](CCCCN)C(=O)N[C@@H](CCC(=O)O)C(N)=O`: in [3], the inhibition in vivo at 5 mg/kg turned out to be 44%. Further, the IC50 in [5] worked out at 0.00041 µM; in experiment [7], 0.00072 µM. Further, the inhibition in vivo at 3 mg/kg in [6] amounted to 44%.

`N#Cc1cccc(COc2cc(OCc3cccc(-c4ccccc4)c3Br)c(Cl)cc2CN2CCCC[C@H]2C(=O)O)c1`: in [8], inhibition was half-maximal at 800 µM (IC50).

For `C[C@@H](O)[C@H](NC(=O)N[C@@H](CC(N)=O)C(=O)NNC(=O)[C@@H](N)CO)C(=O)O`, the concentration giving a half-maximal response (EC50) in [9] amounted to 0.03 µM; in experiment [11], 0.04 µM. The Activity in experiment [2] turned out to be 68%. In [10], the inhibition in vivo at 3 mg/kg was found to be 46%.

As for `O=C(O)C[C@H]1NC(=O)N[C@H](CO)C(=O)NCCOCCOCC(=O)N[C@@H](CO)C(=O)NNC1=O`, the Activity in experiment [1] is on record as 92%.

As to `Cc1c(-c2ccccc2)cccc1-c1nc2c(s1)CNCC2`, the half-inhibitory concentration (IC50) in experiment [4] was < 0.1 µM.

For the molecule `Cc1c(NC(=O)c2cc(CN3CCCC[C@H]3C(=O)O)cn(C)c2=O)cccc1-c1ccccc1`, in experiment [8], the half-maximal inhibitory concentration (IC50) was < 0.1 µM.

As for `O=C(/C=C/c1ccc(O)c(O)c1)O[C@H]1C[C@@](O)(C(=O)O)C[C@H](O)[C@@H]1O`, in experiment [4], it took 36.6 µM to reach half-maximal inhibition (IC50).

Consider `Cc1c(-c2ccccc2)cccc1-c1cn2nc(CNCCO)cnc2n1`, for which the half-maximal inhibitory concentration (IC50) in experiment [4] is < 0.1 µM.

`Cc1c(COc2cc(OCc3cncc(C#N)c3)c(CN(C)C(CO)(CO)CO)cc2Cl)cccc1-c1cccc(OCCCN2CCC(F)(F)C2)c1C`: the concentration for half-maximal inhibition (IC50) in [8] came to 0.0005 µM.

In turn, `NCCCC[C@H](N)c1nnc([C@H](CC(N)=O)NC(=O)N[C@@H](CCC(=O)O)C(=O)O)o1` had an Activity in [1] of 79%.

As to `N#Cc1cncc(COc2cc(O[C@H]3CCc4c(-c5ccccc5)cccc43)c(Cl)cc2CN[C@@H](CO)C(=O)O)c1`, the IC50 in experiment [4] was < 0.1 µM.

With `N#Cc1c(NC(=O)c2ccc(CNCCO)cn2)cccc1-c1ccccc1`, the IC50 in [8] was < 0.01 µM.

As to `NCCCC[C@H](NC(=O)N[C@@H](CC(N)=O)C(=O)NNC(=O)[C@@H](N)CO)C(=O)O`, the Activity in experiment [1] came out at 87%.

In experiment [1], `NC(=O)C[C@H](NC(=O)N[C@@H](CO)C(=O)O)c1nc([C@@H](N)CO)no1` registered an Activity of 91%.

In [8], `Cc1c(/C=C/c2cc(CNC(C)(CO)C(=O)O)ccc2C(F)(F)F)cccc1-c1ccc2c(c1)OCCO2` (configuration not stated) displayed an IC50 of 0.018 µM.

Molecule `NC(=O)C[C@H](N)c1nc([C@@H](N)CO)no1` yielded an Activity in experiment [2] of 93%.

Take `Cc1c(-c2ccccc2)cccc1-c1nc2cc(CNCCO)ccc2o1`: the IC50 in experiment [4] was < 0.1 µM.

For the molecule `Cc1c(COc2cc(OCc3cncc(C#N)c3)c(CN(C)C(C)(CO)CO)cc2Cl)cccc1-c1ccnc(OCCCN2CCCCC2)c1Cl`, the half-maximal inhibitory concentration (IC50) in experiment [8] is < 0.01 µM.
